Assay results taken from patent US20050272677A1, “Delivery of a substance to a pre-determined site” (priority 2002, published 2005).
Where two headings read alike, the source gives them in different places. Each block holds one compound with its values, some of them ahead of it.

Legend:
[1] = target: MscL (Escherichia coli, UniProt P0A742, G22C); assay type: biochemical, E. coli; design: made in house; host or cells: E. coli PB104; details: G22C in DOPC:DOPS liposomes; 2.5 mM MTSEA, 10 mM MTSES
Sequence of MscL (P0A742 whole entry G22C): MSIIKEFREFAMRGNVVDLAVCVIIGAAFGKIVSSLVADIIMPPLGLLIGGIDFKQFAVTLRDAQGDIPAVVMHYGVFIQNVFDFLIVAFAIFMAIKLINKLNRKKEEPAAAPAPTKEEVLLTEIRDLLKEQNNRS
Experimental: Results Overexpression and Purification of the MscL Channel Protein
Samples were prepared and calcein efflux was monitored as described elsewhere in Example 1.
300 μl of detergent-treated liposomes were gently mixed with 240 μl of 0.25 mg/ml purified MscL-mutant G22C in elution buffer containing 0.2% Triton X-100. The mixture was incubated at 60° C. for 45 minutes, followed by the addition of an equal volume (540 μl) of calcein-loading buffer, containing 200 mM calcein, 25 mM Tris, 1 mM EDTA, pH 8.0. After addition of 20 mg of Triton X-100-absorbing Bio-Beads SM-2, the mixture was gently agitated for one hour at room temperature. Subsequently, 80 mg Bio-Beads were added and incubated at 4° C. overnight under mild agitation. Samples were prepared for calcein efflux assay as described elsewhere.

[2] = Release of quinolines from DBC gels by UV-Vis spectroscopy; assay type: physicochemical; details: into 1 mL PBS pH 7.4, initial 0.001M
Description: Entrapment of 8-aminoquinoline and 2-hydroxyquinoline (FIG. 61) was achieved by adding a PBS (phosphate-buffered saline) pH 7.4 solution of the quinoline of interest to X mg of DBC (dibenzoyl cystine); X=2, 3.5, 5 or 10, depending on the weight percentage (wt %) of gelator desired. The sample was then heated in a closed vial until complete dissolution of DBC was observed and subsequently allowed to cool to room temperature where gelation of the sample and, thus, entrapment of the quinolines in the gel occured.
After 24 hours, percentages of 8-aminoquinoline and 2-hydroxyquinoline released from DBC gels of different weight percentages into 1mL of PBS solution at pH 7.4 in contact with the gel, were measured by UV-Vis spectroscopy and are reported in Table J. The initial quinoline concentration in the gel was 0.001M. The error on each percentage is ±4%.

[3] = Gelation experiment (gel formation in solvents); assay type: physicochemical
Experimental: To obtain a gel or to thicken the solvent, the compound is mixed with the required solvent or a mixture of solvents in an amount between 0.01 and 50 wt. %, based on the weight of the composition. Typically, the dissolution of the components will be performed by heating (in some cases it may be helpful to homogenize the components, e.g., vortex) them together at temperatures of 20° C. to 200° C., preferably 50° C. to 150° C. Cooling these hot solutions to a preferred temperature in the range of −20° C. to 100° C., preferably 4° C. to 100° C. affords the gel or thickened solvent. […] In an alternative embodiment, the gelling agent is first dissolved in a polar or apolar solvent followed by the addition of another solvent or solvent mixture, thereby causing gelation to take place.
It will be understood that the use of the present gelling agents or thickeners to prepare a gel or to thicken a composition is also encompassed by the invention. As is well-known, gelling behavior of compounds or compositions is highly unpredictable. […] Preferably, the gelling phenomenon is thermoreversible.
In a typical gelation experiment, a carefully weighed amount of the dithienylcyclopentene derivative under investigation and 1 ml of the solvent are placed in a test tube, which is sealed and then heated until the compound is dissolved. The solution is allowed to cool to room temperature. […] The gelation process could be followed by UV-vis and CD spectroscopy as depicted in FIG. 58. At low concentrations (0.35 mM), compound D is dissolved in toluene. […] Increasing the concentration to 1.8 mM causes gelation of the solvent, which is accompanied by a change of the UV-visible spectrum, together with the appearance of a strong CD signal at 323 nm (FIG. 58, panels (a) and (c)). Similar changes in the UV-vis and CD spectrum are observed upon gelation of the 1.8 mM solution of D in toluene by cooling to a temperature below the sol-gel phase transition (from here on, referred to as gel(o)). From a plot of the increase of the CD signal versus the temperature, the sol-gel phase transition temperature of gel(o) was determined to be 29° C. for a 1.8 mM solution of D in toluene.

[4] = pH as stimulus for gel-to-sol and sol-to-gel transitions; assay type: physicochemical
Description: Addition of base to a gel of 1 led to a decrease in melting temperature of the gel. Above pH>4.06, gelation was no longer observed (reversible process; see FIG. 50).
Compound 15 can gelate water and undergoes a sol-to-gel transition around pH=4.93 at room temperature (for a 0.5 wt % gel).

[5] = In vivo delivery of luciferase DNA complexed with Sunfish amphiphiles; design: species or system mouse; details: for gene expression (Luciferase) after intravenous injection of complexed DNA: 24 hours, efficiency order SF-46>SF-36>SF-6>SF-30>SF-63
Experimental: Sunfish (SF) amphiphiles were tested and compared to DOTAP, a commercially available amphiphile (Avanti Polar Lipids). The used plasmid DNA codes for Luciferase, which is expressed upon transfection. Luciferase activity represents the efficiency of transfection. Liposomes were prepared by drying the Sunfish amphiphiles or DOTAP in glass tubes under a nitrogen flow followed by being under vacuum for one hour. The lipid film was resuspended in 20% sucrose by mixing and warming up for five minutes to 60° C. in a water bath. The liposomal suspension was then sonicated for three minutes. For lipoplexes formation, plasmid DNA (30 μg/mouse) diluted in 20% sucrose was added to the liposomes (450 nmol/mouse) under mixing. The lipoplexes were allowed to rest at room temperature for […] and were intravenously injected (150 μl) in male BALB/c mice. Organs (lungs, heart, liver, spleen and kidneys) were collected 24 hours after injection for analysis. Luciferase activity was measured in homogenates of the different organs and related to a standard curve obtained with purified recombinant Luciferase.

[6] = Gelation in the presence of surfactants and polymeric micelles; assay type: physicochemical; design: key: G = gel; C = crystalline; G^a: ^a= not stable
[7] = as above; assay type: physicochemical; design: key: g = gel; i = insoluble; p = precipitate; sol = soluble

Compound: 2-aminoethyl methanethiosulfonate [MTSEA, reference compound]
calcein release upon addition of MTS compound, versus MTSET [1]: the kinetics of release are significantly slower

Compound: Oc1ccc2ccccc2n1 [2-hydroxyquinoline]
percentage released from DBC gel after 24 hours ([2]; DBC 0.35 wt %): 38% | percentage released from DBC gel after 24 hours ([2]; DBC 0.5 wt %): 37% | percentage released from DBC gel after 24 hours ([2]; DBC 1.0 wt %): 36%

Compound: Nc1cccc2cccnc12 [8-aminoquinoline]
percentage released from DBC gel after 24 hours ([2]; DBC 0.35 wt %): 15% | percentage released from DBC gel after 24 hours ([2]; DBC 0.5 wt %): 12% | percentage released from DBC gel after 24 hours ([2]; DBC 1.0 wt %): 10%

solvents gelated [3]: both organic solvents and water | effect of sufficient amounts of base on the gel [4]: causes dissolution of these gels
Compound: COC(=O)[C@H](CCSC)NC(=O)[C@H]1C[C@@H](C(=O)N[C@@H](CCSC)C(=O)OC)C[C@@H](C(=O)N[C@@H](CCSC)C(=O)OC)C1 [9a, CHexAmMetOMe]

Compound: CCCCCCCC/C=C\CCCCCCCCCc1cc[n+](CCCCCCCC/C=C\CCCCCCCC)cc1.[Cl-] [SF-6, 1-(9′-cis-octadecenyl)-4-(10″-cis-nonadecenyl)pyridinium Chloride]
gene expression (Luciferase) after intravenous injection of complexed DNA [5]: resulted in gene expression in the lungs

Compound: CCCCCCCC/C=C\CCCCCCCC[n+]1ccc(CCCCCCCCCCCCC)cc1.[Cl-] [SF-30, 1-(9′-cis-octadecenyl)-4-tridecyl-pyridinium Chloride]
gene expression (Luciferase) after intravenous injection of complexed DNA [5]: resulted in gene expression in the lungs

Compound: CCCCCCCCCCCCCCCC[n+]1ccc(CCCCCCCCCCCCC)cc1.[Cl-] [SF-36, 1-hexadecyl-4-tridecyl-pyridinium Chloride]
gene expression (Luciferase) after intravenous injection of complexed DNA [5]: resulted in gene expression in the lungs

Compound: CCCCCCCC/C=C\CCCCCCCCCc1cc[n+](CCCCCCCCCCCCCCCCCC)cc1 [SF-46, 1-stearyl-4-(10′-cis-nonadecenyl)-pyridinium Chloride]
Luciferase activity in the lungs compared to DOTAP ([5]; 24 hours after i.v. injection): five times higher | gene expression (Luciferase) after intravenous injection of complexed DNA [5]: resulted in gene expression in the lungs

solvents gelated [3]: water and lower alcohols | pH above which gelation was no longer observed ([4]; addition of base, reversible): 4.06 | Gelation properties ([6]; CTAB < CMC, * pH reversible gelation): C | Gelation properties ([6]; CTAB < CMC, ** pH reversible then thermoreversible gelation): C | Gelation properties ([6]; CTAB > CMC, * pH reversible gelation): C | Gelation properties ([6]; CTAB > CMC, ** pH reversible then thermoreversible gelation): C | Gelation properties ([6]; Lactose der. < CMC, * pH reversible gelation): G | Gelation properties ([6]; Lactose der. < CMC, ** pH reversible then thermoreversible gelation): G | Gelation properties ([6]; Lactose der. > CMC, * pH reversible gelation): G | Gelation properties ([6]; Lactose der. > CMC, ** pH reversible then thermoreversible gelation): G | Gelation properties ([6]; Nonionic (Lactose der.) < CMC): G | Gelation properties ([6]; Nonionic (Lactose der.) > CMC): G | Gelation properties ([6]; SDS < CMC, * pH reversible gelation): G | Gelation properties ([6]; SDS < CMC, ** pH reversible then thermoreversible gelation): G | Gelation properties ([6]; SDS > CMC, * pH reversible gelation): G | Gelation properties ([6]; SDS > CMC, ** pH reversible then thermoreversible gelation): G | Gelation properties ([6]; anionic (SDS) < CMC): G | Gelation properties ([6]; anionic (SDS) > CMC): G | Gelation properties ([6]; cationic (CTAB) < CMC): C | Gelation properties ([6]; cationic (CTAB) > CMC): C | Gelation properties ([7]; Pluronic P 105, 5 mg · ml^−1): p | Gelation properties ([7]; Pluronic P 105, 5 mg · ml^−1, * pH reversible gelation): g | Gelation properties ([7]; Pluronic P 105, 5 mg · ml^−1, ** pH reversible then thermoreversible gelation): p | Gelation properties ([7]; Pluronic P 105, 100 mg · ml^−1): p | Gelation properties ([7]; Pluronic P 105, 100 mg · ml^−1, * pH reversible gelation): g | Gelation properties ([7]; Pluronic P 105, 100 mg · ml^−1, ** pH reversible then thermoreversible gelation): p
Compound: CSCC[C@H](NC(=O)[C@H]1C[C@@H](C(=O)N[C@@H](CCSC)C(=O)O)C[C@@H](C(=O)N[C@@H](CCSC)C(=O)O)C1)C(=O)O [gelator 1, CHexAmMetOH]

solvents gelated [3]: water and lower alcohols | Gelation properties ([6]; Nonionic (Lactose der.) < CMC): G | Gelation properties ([6]; Nonionic (Lactose der.) > CMC): G | Gelation properties ([6]; anionic (SDS) < CMC): G | Gelation properties ([6]; anionic (SDS) > CMC): G | Gelation properties ([6]; cationic (CTAB) < CMC): G | Gelation properties ([6]; cationic (CTAB) > CMC): G | Gelation properties ([7]; Pluronic P 105, 5 mg · ml^−1): p | Gelation properties ([7]; Pluronic P 105, 100 mg · ml^−1): p
Compound: O=C(NCCOCCO)[C@H](Cc1ccccc1)NC(=O)[C@H]1C[C@@H](C(=O)N[C@@H](Cc2ccccc2)C(=O)NCCOCCO)C[C@@H](C(=O)N[C@@H](Cc2ccccc2)C(=O)NCCOCCO)C1 [gelator 4, CHexAmPheNHCH2CH2OCH2CH2OH]

solvents gelated ([3]; listed as 15): water | solvents gelated ([3]; listed as CHex-Am-Met-Hista): water and lower alcohols | pH of sol-to-gel transition [4]: ~4.93
Compound: CSCC[C@H](NC(=O)[C@H]1C[C@@H](C(=O)N[C@@H](CCSC)C(=O)NCCc2c[nH]cn2)C[C@@H](C(=O)N[C@@H](CCSC)C(=O)NCCc2c[nH]cn2)C1)C(=O)NCCc1c[nH]cn1 [gelator 15, CHexAmMetHista]

effect of sufficient amounts of base on the gel [4]: causes dissolution of these gels
Compound: CHexAmAspOMe [gelator 8]

solvents gelated [3]: water:alcohol mixtures (1:1) | state ([3]; DMSO): soluble | state ([3]; EtOH): soluble | state ([3]; H2O/EtOH (1:1), weight % 1.0, 0.5, 0.25): gel | state ([3]; H2O/EtOH (2:1), weight % 0.16): gel | state ([3]; H2O/EtOH (4:1), weight % 1.0, 0.5): gel (turbid) | state ([3]; H2O/MeOH (1:1), weight % 0.5, 0.25): gel | state ([3]; H2O/MeOH (4:1), weight % 1.0, 0.5): gel (turbid) | state ([3]; H2O, weight % 0.05): insoluble | state ([3]; MeOH): soluble | pH of sol-to-gel transition ([4]; room temperature, 0.5 wt % in MeOH:H2O=1:1): ~4.47
Compound: CHexAmMetAmCH2Pyr [gelator 6]

Compound: CHexAmPheGlyOH [gelator 3]
effect of sufficient amounts of base on the gel [4]: causes dissolution of these gels
